For 18 compounds, IC50, Activity and solubility results are on record in ChEMBL document CHEMBL3593184, “Synthesis of (2-amino)ethyl derivatives of quercetin 3-O-methyl ether and their antioxidant and neuroprotective effects” (Bioorg Med Chem, 2015).

SMILES strings stand for the structures.

The test system of data set [1] is Liver microsome. The data set can be described thus: Antioxidant activity in rat liver microsomes assessed as reduction in iron-ascorbic acid-induced lipid […] activity after 30 mins by TBARS assay. The settings on record: 0.5 h. It counts as functional.
Data set [2] can be described thus: Antioxidant activity assessed as superoxide anion radical scavenging activity after 20 mins by xanthine/xanthine oxidase method. It counts as physicochemical.
Data set [3] is described as follows: Antioxidant activity assessed as DPPH radical scavenging activity after 30 min. It counts as physicochemical. As to conditions: DPPH radical solution. Background: Loss of DPPH colour is used to gauge radical scavenging.
The test system of data set [4] is Rattus norvegicus. Kind of data set: Neuroprotective activity against middle cerebral artery occlusion-induced focal cerebral ischemia in Sprague-Dawley rat assessed as reduction in edema at 10 mg/kg, iv administered 30 mins after MCA occlusion measured after 2 hrs of reperfusion by TTC staining (reference value: 13 +/- 0.7 %). In kind it is functional. More on the design: scale not given: the % may be the effect or the level left.

Data set [5] relates to Rattus norvegicus. Kind of data set: Neuroprotective activity against middle cerebral artery occlusion-induced focal cerebral ischemia in Sprague-Dawley rat assessed as reduction in absolute infarct volume in striatum at 10 mg/kg, iv administered 30 mins after MCA occlusion measured after 2 hrs of reperfusion by TTC staining (reference value: 41.9 +/- 29 mm'3). It counts as functional.

Data set [6] relates to Rattus norvegicus. The data set can be described thus: Neuroprotective activity against middle cerebral artery occlusion-induced focal cerebral ischemia in Sprague-Dawley rat assessed as reduction in corrected total infarct volume at 10 mg/kg, iv administered 30 mins after MCA occlusion measured after 2 hrs of reperfusion by TTC staining (reference value: 163.2 +/- 9.4 mm'3). It counts as functional.

Data set [7] in a line: Aqueous solubility of the compound at room temperature by HPLC. The settings on record: water. In kind it is physicochemical.
In data set [8] the test system is Rattus norvegicus. Kind of data set: Neuroprotective activity against middle cerebral artery occlusion-induced focal cerebral ischemia in Sprague-Dawley rat assessed as reduction in absolute infarct total volume at 10 mg/kg, iv administered 30 mins after MCA occlusion measured after 2 hrs of reperfusion by TTC staining (reference value: 237.4 +/- 13.1 mm'3). It counts as functional.

Data set [9] relates to Rattus norvegicus. The data set can be described thus: Neuroprotective activity against middle cerebral artery occlusion-induced focal cerebral ischemia in Sprague-Dawley rat assessed as reduction in absolute infarct volume in cortex at 10 mg/kg, iv administered 30 mins after MCA occlusion measured after 2 hrs of reperfusion by TTC staining (reference value: 195.6 +/- 11.5 mm'3). In kind it is functional.

As to `CCN(CC)CCOc1cc(O)c2c(=O)c(OC)c(-c3ccc(O)c(O)c3)oc2c1`, the IC50 (as a rule, the point on the concentration scale where inhibition reaches its midpoint) worked out at 15.8 µM in data set [1], 8.14 µM in data set [2] and 27.4 µM in [3].

As to `COc1c(-c2ccc(O)c(O)c2)oc2cc(OCCN3CCCCC3)cc(O)c2c1=O.Cl`, the IC50 in data set [1] was found to be 19.2 µM; in data set [2] it was 8.15 µM; in data set [3], 20.7 µM. Besides, the Activity came out at 6.7% in data set [4]; 30.1 mm3 in data set [5]; 92.1 mm3 in [6]; 128.9 mm3 in data set [8]; 93.6 mm3 in data set [9]. Further, the solubility (commonly the concentration that dissolves in the medium under given conditions) in data set [7] was over 50 mM.

In the case of `COc1c(-c2cc(O)c(O)c(O)c2)oc2cc(OCCN3CCCC3)cc(O)c2c1=O`, the IC50 is 10.1 µM in data set [1], over 100 µM in [2] and 16.8 µM in data set [3].

`COc1c(-c2ccc(O)c(O)c2)oc2cc(O)cc(OCCN3CCCC3)c2c1=O`: the IC50 in data set [1] came to 23.3 µM; in data set [2], 4.58 µM; in data set [3] it was 84 µM.

Consider `CCN(CC)CCOc1cc(O)cc2oc(-c3cc(O)c(O)c(O)c3)c(OC)c(=O)c12`, for which the IC50 in [1] is 11.2 µM; in data set [2], over 100 µM; in [3], 22.1 µM.

Turning to `CCN(CC)CCOc1cc(O)cc2oc(-c3ccc(O)c(O)c3)c(OC)c(=O)c12`, the IC50 in [1] was 23.3 µM; in data set [2], 6.53 µM; in [3] it was over 100 µM.

As for `COc1c(-c2cc(O)c(O)c(O)c2)oc2cc(OCCN3CCOCC3)cc(O)c2c1=O`, the results for the IC50 in data set [1], in [2] and in data set [3] were 10.2 µM, over 100 µM and 26 µM, respectively.

As to `COc1c(-c2ccc(O)c(O)c2)oc2cc(OCCN3CCOCC3)cc(O)c2c1=O`, the IC50 in data set [1] worked out at 16.2 µM; in data set [2], 7.41 µM; in [3], 47.2 µM.

Consider `COc1c(-c2cc(O)c(O)c(O)c2)oc2cc(O)cc(OCCN3CCCC3)c2c1=O`, for which the values for the IC50 in [1], in data set [2] and in [3] were 10.9 µM, over 100 µM and 27 µM, respectively.

For `COc1c(-c2cc(O)c(O)c(O)c2)oc2cc(O)cc(OCCN3CCOCC3)c2c1=O`, the IC50 in [1] was 12 µM; in data set [2], over 100 µM; in [3], 23.2 µM.

In the case of `COc1c(-c2cc(O)c(O)c(O)c2)oc2cc(O)cc(OCCN3CCCCC3)c2c1=O`, the values for the IC50 in data set [1], in [2] and in [3] were 11.9 µM, over 100 µM and 32.4 µM, respectively.

`COc1c(-c2ccc(O)c(O)c2)oc2cc(O)cc(O)c2c1=O` [3-O-METHYLQUERCETIN]: the values for the IC50 in data set [1], in data set [2] and in data set [3] were 19 µM, 17.4 µM and 14.2 µM, respectively. In addition, the Activity came out at 5.5% in [4]; 27.2 mm3 in data set [5]; 78.8 mm3 in data set [6]; 108.8 mm3 in data set [8]; 79.9 mm3 in data set [9]. Further, the solubility in data set [7] is over 50 mM.

Regarding `COc1c(-c2cc(O)c(O)c(O)c2)oc2cc(OCCN3CCCCC3)cc(O)c2c1=O`, the IC50 is 10.5 µM in data set [1], over 100 µM in [2] and 26.3 µM in [3].

For `COc1c(-c2ccc(O)c(O)c2)oc2cc(O)cc(OCCN3CCOCC3)c2c1=O`, the concentration for half-maximal inhibition (IC50) is 37.4 µM in [1], 11.2 µM in [2] and over 100 µM in [3].

For the compound `COc1c(-c2ccc(O)c(O)c2)oc2cc(O)cc(OCCN3CCCCC3)c2c1=O`, the IC50 in [1] is 25.1 µM; in data set [2], 5.8 µM; in data set [3] it was over 100 µM.

Take `O=C1O[C@H]([C@@H](O)CO)C(O)=C1O` [ASCORBIC ACID]: the IC50 is over 50 µM in [2] and 41 µM in data set [3].

As for `CCN(CC)CCOc1cc(O)c2c(=O)c(OC)c(-c3cc(O)c(O)c(O)c3)oc2c1.Cl`, the figures for the IC50 in [1], in data set [2] and in [3] were 11.5 µM, over 100 µM and 22.9 µM, respectively. Moreover, the Activity in data set [4] is recorded as 9.4%; in [5], 39.3 mm3; in data set [6], 108.9 mm3; in [8], 164 mm3; in [9] it was 123.4 mm3. In [7], this compound returned a solubility of over 50 mM.

As for `COc1c(-c2ccc(O)c(O)c2)oc2cc(OCCN3CCCC3)cc(O)c2c1=O`, the half-maximal inhibitory concentration (IC50) in data set [1] was 21.8 µM; in [2], 11.4 µM; in [3], 18.9 µM.
